Values quoted from earlier work, collected in US12343354B2, “Injection containing p-boronophenylalanine” (Stella Pharma Corporation, priority 2019, dated 2025).

Conditions: physiological pH

Question: For `N[C@@H](Cc1ccc(B(O)O)cc1)C(=O)O` [p-Boronophenylalanine, p-boronophenylalanine], which solubility is on record?
Answer: Its solubility is “very poor solubility”.
